{"source": "PubChem BioAssay (NCI)", "assay_in_all_cases": "growth of human tumour cells (NCI), 48 h", "key": {"SF-295 CNS": {"system": "SF-295 CNS"}, "SK-MEL-5 melanoma": {"system": "SK-MEL-5 melanoma"}, "SK-MEL-2 melanoma": {"system": "SK-MEL-2 melanoma"}, "OVCAR-4 ovarian": {"system": "OVCAR-4 ovarian"}, "NCI-H23 lung": {"system": "NCI-H23 lung"}, "MCF7 breast": {"system": "MCF7 breast"}, "CCRF-CEM leukemia": {"system": "CCRF-CEM leukemia"}, "SF-268 CNS": {"system": "SF-268 CNS"}, "SW-620 colon": {"system": "SW-620 colon"}, "HCT-15 colon": {"system": "HCT-15 colon"}, "EKVX NSCLC": {"system": "EKVX NSCLC"}, "SNB-75 CNS": {"system": "SNB-75 CNS"}, "HCC-2998 colon": {"system": "HCC-2998 colon"}, "A498 renal": {"system": "A498 renal"}, "UO-31 renal": {"system": "UO-31 renal"}, "MOLT-4 leukemia": {"system": "MOLT-4 leukemia"}, "NCI-H460 lung": {"system": "NCI-H460 lung"}, "BT-549 breast": {"system": "BT-549 breast"}, "M14 melanoma": {"system": "M14 melanoma"}, "K-562 leukemia": {"system": "K-562 leukemia"}, "RXF 393 renal": {"system": "RXF 393 renal"}, "786-0 renal": {"system": "786-0 renal"}, "SK-MEL-28 melanoma": {"system": "SK-MEL-28 melanoma"}, "HCT-116 colon": {"system": "HCT-116 colon"}, "MDA-MB-231 breast": {"system": "MDA-MB-231 breast"}, "UACC-257 melanoma": {"system": "UACC-257 melanoma"}, "KM12 colon": {"system": "KM12 colon"}, "ACHN renal": {"system": "ACHN renal"}, "PC-3 prostate": {"system": "PC-3 prostate"}}, "note": "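All cell lines were grown in 96-well plates and treated with compound for 48 hours. The concentration for 50% growth inhibition is given as GI50. TGI: total growth inhibition.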", "data": [{"smiles": "O=C1NC(=C(Cl)Cl)/C(=N/S(=O)(=O)N2CCCCC2CC2(C(F)(F)F)N=N2)N1", "note": "(configuration not stated)", "values": [{"measurement": "TGI", "setting": "SF-295 CNS", "result": 12.1, "unit": "µM"}, {"measurement": "GI50", "setting": "SK-MEL-5 melanoma", "result": 2.4, "unit": "µM"}, {"measurement": "TGI", "setting": "SK-MEL-5 melanoma", "result": 5.93, "unit": "µM"}, {"measurement": "GI50", "setting": "SK-MEL-2 melanoma", "result": 1.86, "unit": "µM"}, {"measurement": "TGI", "setting": "SK-MEL-2 melanoma", "result": 3.9, "unit": "µM"}, {"measurement": "GI50", "setting": "OVCAR-4 ovarian", "result": 1.76, "unit": "µM"}, {"measurement": "TGI", "setting": "OVCAR-4 ovarian", "result": 3.2, "unit": "µM"}, {"measurement": "GI50", "setting": "NCI-H23 lung", "result": 1.71, "unit": "µM"}, {"measurement": "TGI", "setting": "NCI-H23 lung", "result": 3.77, "unit": "µM"}, {"measurement": "GI50", "setting": "MCF7 breast", "result": 0.769, "unit": "µM"}, {"measurement": "TGI", "setting": "MCF7 breast", "result": 11.8, "unit": "µM"}, {"measurement": "GI50", "setting": "CCRF-CEM leukemia", "result": 1.99, "unit": "µM"}, {"measurement": "TGI", "setting": "CCRF-CEM leukemia", "result": 5.57, "unit": "µM"}, {"measurement": "GI50", "setting": "SF-268 CNS", "result": 3.35, "unit": "µM"}, {"measurement": "TGI", "setting": "SF-268 CNS", "result": 13.1, "unit": "µM"}, {"measurement": "GI50", "setting": "SW-620 colon", "result": 1.67, "unit": "µM"}, {"measurement": "TGI", "setting": "SW-620 colon", "result": 3.24, "unit": "µM"}, {"measurement": "GI50", "setting": "HCT-15 colon", "result": 0.398, "unit": "µM"}, {"measurement": "TGI", "setting": "HCT-15 colon", "result": 1.5, "unit": "µM"}, {"measurement": "GI50", "setting": "EKVX NSCLC", "result": 2.04, "unit": "µM"}, {"measurement": "TGI", "setting": "EKVX NSCLC", "result": 4.33, "unit": "µM"}, {"measurement": "GI50", "setting": "SNB-75 CNS", "result": 3.5, "unit": "µM"}, {"measurement": "TGI", "setting": "SNB-75 CNS", "result": 17.4, "unit": "µM"}, {"measurement": "GI50", "setting": "HCC-2998 colon", "result": 1.86, "unit": "µM"}, {"measurement": "TGI", "setting": "HCC-2998 colon", "result": 3.38, "unit": "µM"}, {"measurement": "GI50", "setting": "A498 renal", "result": 11.4, "unit": "µM"}, {"measurement": "TGI", "setting": "A498 renal", "result": 24.1, "unit": "µM"}, {"measurement": "GI50", "setting": "UO-31 renal", "result": 2.69, "unit": "µM"}, {"measurement": "TGI", "setting": "UO-31 renal", "result": 12.4, "unit": "µM"}, {"measurement": "GI50", "setting": "MOLT-4 leukemia", "result": 1.68, "unit": "µM"}, {"measurement": "TGI", "setting": "MOLT-4 leukemia", "result": 4.43, "unit": "µM"}, {"measurement": "GI50", "setting": "NCI-H460 lung", "result": 3.06, "unit": "µM"}, {"measurement": "TGI", "setting": "NCI-H460 lung", "result": 10.7, "unit": "µM"}, {"measurement": "GI50", "setting": "BT-549 breast", "result": 1.89, "unit": "µM"}, {"measurement": "TGI", "setting": "BT-549 breast", "result": 3.67, "unit": "µM"}, {"measurement": "GI50", "setting": "M14 melanoma", "result": 1.85, "unit": "µM"}, {"measurement": "TGI", "setting": "M14 melanoma", "result": 3.93, "unit": "µM"}, {"measurement": "GI50", "setting": "K-562 leukemia", "result": 0.628, "unit": "µM"}, {"measurement": "TGI", "setting": "K-562 leukemia", "result": 10.8, "unit": "µM"}, {"measurement": "GI50", "setting": "RXF 393 renal", "result": 1.67, "unit": "µM"}, {"measurement": "TGI", "setting": "RXF 393 renal", "result": 3.22, "unit": "µM"}, {"measurement": "GI50", "setting": "786-0 renal", "result": 3.2, "unit": "µM"}, {"measurement": "TGI", "setting": "786-0 renal", "result": 9.62, "unit": "µM"}, {"measurement": "GI50", "setting": "SK-MEL-28 melanoma", "result": 1.85, "unit": "µM"}, {"measurement": "TGI", "setting": "SK-MEL-28 melanoma", "result": 3.33, "unit": "µM"}, {"measurement": "GI50", "setting": "HCT-116 colon", "result": 1.73, "unit": "µM"}, {"measurement": "TGI", "setting": "HCT-116 colon", "result": 3.26, "unit": "µM"}, {"measurement": "GI50", "setting": "MDA-MB-231 breast", "result": 1.73, "unit": "µM"}, {"measurement": "TGI", "setting": "MDA-MB-231 breast", "result": 3.44, "unit": "µM"}, {"measurement": "GI50", "setting": "UACC-257 melanoma", "result": 1.96, "unit": "µM"}, {"measurement": "TGI", "setting": "UACC-257 melanoma", "result": 4.48, "unit": "µM"}, {"measurement": "GI50", "setting": "KM12 colon", "result": 3.14, "unit": "µM"}, {"measurement": "TGI", "setting": "KM12 colon", "result": 12.2, "unit": "µM"}, {"measurement": "GI50", "setting": "ACHN renal", "result": 1.74, "unit": "µM"}, {"measurement": "TGI", "setting": "ACHN renal", "result": 3.12, "unit": "µM"}, {"measurement": "GI50", "setting": "PC-3 prostate", "result": 2.26, "unit": "µM"}, {"measurement": "TGI", "setting": "PC-3 prostate", "result": 6.37, "unit": "µM"}]}]}
